Assay results published in PubChem BioAssay (NCI).
“And” between values parts separate entries of the source, which are not always exact repeats. Identical values can stand only once.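 Test compounds were applied to cells in 96-well plates for 48 hours at 5 doses. GI50 = concentration required for 50% inhibition of growth. TGI: total growth inhibition.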

Key:
Assay in all cases: NCI anticancer screen, dose series, 48 h
[1] = system: MCF7 breast
[2] = system: SK-OV-3 ovarian
[3] = system: OVCAR-5 ovarian
[4] = system: COLO 205 colon
[5] = system: A549 NSCLC
[6] = system: HL-60(TB) leukemia
[7] = system: HOP-62 NSCLC
[8] = system: SK-MEL-5 melanoma
[9] = system: HCT-116 colon
[10] = system: DU-145 prostate

SMILES	GI50 [1]	TGI [1]	GI50 [2]	TGI [2] [µM]	GI50 [3]	TGI [3] [µM]	GI50 [4]	TGI [4] [µM]	GI50 [5]	TGI [5] [µM]	GI50 [6]	TGI [6]	GI50 [7]	TGI [7]	GI50 [8]	TGI [8] [µM]	GI50 [9]	TGI [9]	GI50 [10]	TGI [10] [µM]
COc1ccc(/C(=C(\c2ccccc2)[N+](=O)[O-])c2ccc(OCCN3CCCC3)cc2)cc1	0.194 µM	3.63 µM	5.5 µM	18.3	8.75 µM	22.9	1.46 µM	3.14	4.68 µM	17.3	1.94 µM	4.6 µM	1.89 µM	4.94 µM	1.54 µM	2.92	2.46 µM	13.5 µM	9.52 µM	21.5
COc1cc(/C=N/NC(=O)c2cnn3c2NC(c2ccccc2)C3)ccc1OCc1ccccc1 (configuration not stated)	0.365 µM	14.6 µM	1.71 µM	11.1	2.11 µM	10.6	0.953 µM	4.22	1.17 µM	3.75	0.328 µM	7.54 µM	1.2 µM	4.27 µM	0.663 µM	2.8	1.18 µM	11.7 µM	1.47 µM	6.4
O=C(NOCCO)c1ccc2cncn2c1Nc1ccc(I)cc1F	> 10 µM and 26.2 µM	> 100 µM	> 3.15 µM and 0.791 µM	> 96.2	0.00313 µM and < 0.01 µM	> 100	0.00235 µM and < 0.01 µM	0.803	0.143 µM and 0.132 µM	> 100	0.00191 µM and < 0.01 µM	> 100 µM	0.0159 µM and < 0.0182 µM	> 71.4 µM	3.94 µM	> 100	0.0101 µM and < 0.01 µM	> 10 µM and 20.6 µM	> 10 µM and 19.9 µM	> 100
COc1cc(C2c3cc4c(cc3[C@@H](Nc3ccc(F)cc3)C3COC(=O)[C@H]23)OCO4)cc(OC)c1O (some centres not stated)	–	> 65.2 µM	–	21	–	37	–	15.6	0.264 µM	5.17	0.181 µM and 0.631 µM	0.839 µM and 6.02 µM	0.416 µM	3.3 µM	0.806 µM	8.56	–	22.3 µM	–	8.89
COc1cc(OC)c(/C=C/S(=O)(=O)Cc2ccc(OC)c(N)n2)c(OC)c1	< 0.01 µM	> 100 µM	< 0.01 µM	> 100	< 0.0256 µM	> 100	< 0.01 µM	< 0.01	< 0.01 µM	> 100	< 0.01 µM	< 0.0273 µM	< 0.01 µM	> 100 µM	< 0.01 µM	0.0116	< 0.01 µM	> 100 µM	< 0.01 µM	> 100
COC(=O)c1sc(-n2cnc3cc(OC)c(OC)cc32)cc1OCc1ccccc1C(F)(F)F	> 25 µM	> 25 µM	> 21.5 µM	> 25	> 25 µM	> 25	> 25 µM	> 25	> 25 µM	> 25	> 25 µM	> 25 µM	9.22 µM	> 25 µM	> 25 µM	> 25	> 21.8 µM	> 25 µM	> 25 µM	> 25
O=C(Nc1c[nH]c(=O)[nH]c1=O)Oc1ccccc1	–	> 100 µM	–	> 100	–	> 100	–	> 100	–	> 100	–	33.5 µM	–	> 100 µM	–	> 100	–	> 100 µM	–	> 100
COc1cc2c3c(c4cc(OC)c(OC)cc4c2cc1OC)CN1CCC[C@H]1C3	–	0.127 µM and 0.318 µM	–	0.172	–	0.681	0.0592 µM and < 0.01 µM	–	–	0.142	0.0853 µM and < 0.0165 µM	–	0.0409 µM and < 0.0147 µM	2.85 µM	0.0607 µM and < 0.01 µM	–	–	1.75 µM and 1.04 µM	0.0205 µM	0.187
Cc1cnc(C(=O)Nc2nc3ccc(S(=O)(=O)Nc4ccc(C(C)(C)C)cc4)cc3[nH]2)cn1	0.338 µM	11.3 µM	1.09 µM	17.1	1.41 µM	10.7	0.503 µM	7.74	0.652 µM	9.14	0.304 µM	1.07 µM	0.785 µM	18.8 µM	0.33 µM	7.09	0.498 µM	6.22 µM	0.525 µM	4.51
O=C1OC(c2ccccc2)=N/C1=C\c1ccccc1	–	> 100 µM	–	> 100	–	> 100	> 100 µM and 37.2 µM	> 100	–	> 100	–	99.2 µM and 84.4 µM	–	> 100 µM and 73.5 µM	–	> 100	–	> 100 µM	–	> 100
N#Cc1cnn(C(=O)c2nn(-c3ccc(Cl)cc3)cc2O)c1N	0.373 µM	10.5 µM	0.521 µM	11.3	0.61 µM	21.6	0.619 µM	2.13	0.201 µM	16.5	0.354 µM	2.27 µM	0.392 µM	17.4 µM	0.464 µM	2.51	0.26 µM	10.9 µM	0.57 µM	28.4
NP1(Oc2ccc(F)cc2)=NP(N)(Oc2ccc(F)cc2)=NP(Oc2ccc(F)cc2)(Oc2ccc(F)cc2)=N1 (configuration not stated)	–	10.9 µM	–	27.2	–	23.7	–	19.4	–	14.6	–	22.3 µM	–	21.5 µM	–	17.8	–	15.7 µM	–	20.1
O=C1c2ccc3c4c(ccc(c24)C(=O)N1CCCCO)C(=O)N(CCCCO)C3=O	1.43 µM	3.84 µM	4.14 µM	17.8	1.57 µM	4.06	0.888 µM	2.5	1.93 µM	6.65	2.07 µM	7.43 µM	2.53 µM	12.7 µM	0.388 µM	1.48	1.22 µM	6.16 µM	2.2 µM	6.32
